Where two headings read alike, the source gives them in different places.
What was measured:
[1] = biological target: DCN1 (DCUND1) protein PONY domain (Homo sapiens (Human), UniProt Q96GG9); assay: TR-FRET assay, DCN1 binding with FAM-labeled probe
Method in brief: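 Binding was read as the TR-FRET ratio between a FAM-tagged inhibitor probe and Tb-labeled biotinylated E. coli-expressed DCN1 PONY domain, measured 1, 5 and 24 h after compound addition. The two setups used 5 nM protein/20 nM FAM-probe or 0.31 nM protein/900 nM total probe (100 nM labeled), in TritonX buffer with 200 mM NaCl.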

[2] = tested on: Cullin-3 (CUL3) neddylation; assay: AlphaLISA assay for Cullin-3 (CUL3) neddylation in TF 1 cells; type: cell-based; details: Homo sapiens, 3 hours treatment
Method in brief: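 Neddylated CUL3 was quantified by AlphaLISA in lysates of TF 1 cells exposed for 3 h to test compound in IMDM without supplements. Percent inhibition set between vehicle and 1 μM DI-1548 positive control; IC50 derived by Hill-equation fitting of dose-response curves.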

[3] = 24 hr after treatment with compound, read-out: TR FRET IC50 24 hr
[4] = TR FRET IC50 1 hr (nM), 1 hr after treatment with compound
[5] = read-out: TR FRET IC50 1 hr, 1 hr after treatment with compound

Chain of DCN1 (DCUND1) protein PONY domain (Q96GG9 60-248): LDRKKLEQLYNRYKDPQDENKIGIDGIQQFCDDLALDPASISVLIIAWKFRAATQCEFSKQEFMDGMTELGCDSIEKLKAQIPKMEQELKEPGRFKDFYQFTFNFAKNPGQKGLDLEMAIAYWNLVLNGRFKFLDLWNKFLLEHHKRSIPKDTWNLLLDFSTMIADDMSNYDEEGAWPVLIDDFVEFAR

Question: Which results are given for `CCN1C(=O)[C@@H](NC(=O)c2cccc(C(F)(F)F)c2)[C@@H](C2CC2)c2c(C(=O)N3CCC[C@H]3C#N)nn(C3CC3)c21` [Compound I-454]?
Answer: IC50 [1, 3]: 200 to 1000 nM; IC50 [1, 4]: 1000 to 3000 nM; IC50 ([2]; TF-1, 3 h): ≤ 100 nM

Question: For `CCCn1nc(C(=O)N(CC#N)C2CC2)c2c1N(CC)C(=O)[C@H](NC(=O)c1cccc(C(F)(F)F)c1)[C@@H]2C1CC1` [Compound I-455], which IC50 [1, 3] is on record?
Answer: 1000 to 3000 nM

Question: And the IC50 [1, 4]?
Answer: 1000 to 3000 nM

Question: What about the IC50 ([2]; TF-1, 3 h) of the same compound?
Answer: > 1000 nM

Question: `CCN1C(=O)[C@H](NC(=O)c2cccc(C(F)(F)F)c2)[C@H](c2ccc(F)cc2)c2c(C(=O)N3CC[C@@H]3C#N)nn(-c3ccccc3)c21` [Compound I-457] was tested. Which IC50 [1, 3] did it give?
Answer: 1000 to 3000 nM

Question: And the IC50 [1, 4]?
Answer: 1000 to 3000 nM

Question: What about the IC50 ([2]; TF-1, 3 h) of the same compound?
Answer: > 1000 nM

Question: What does the source list for `CCN1C(=O)[C@@H](NC(=O)c2nccc(C(F)(F)F)n2)[C@H](c2ccc(F)cc2)c2c(CNC(=O)/C=C/C(=O)N(C)C)nn(-c3ccccc3)c21` [Compound I-460]?
Answer: IC50 [1, 3]: 200 to 1000 nM; IC50 [1, 4]: 200 to 1000 nM; IC50 ([2]; TF-1, 3 h): > 1000 nM

Question: What does the source list for `CCN1C(=O)[C@H](NC(=O)c2cccc(C(F)(F)F)c2)[C@H](c2ccc(F)cc2)c2c(C(=O)N3[C@H](C#N)C[C@@H]4C[C@@H]43)nn(-c3ccccc3)c21` [Compound I-463]?
Answer: IC50 [1, 3]: 1000 to 3000 nM; IC50 [1, 4]: 1000 to 3000 nM; IC50 ([2]; TF-1, 3 h): > 1000 nM

Question: What does the source list for `CCN1C(=O)[C@@H](NC(=O)c2cccc(C(F)(F)F)c2)[C@@H](c2ccc(F)cc2)c2c(C(=O)N3CS(=O)(=O)C[C@H]3C#N)nn(-c3ccccc3)c21` [Compound I-465]?
Answer: IC50 [1, 3]: ≤ 200 nM; IC50 [1, 5]: ≤ 200 nM; IC50 ([2]; TF-1, 3 h): ≤ 100 nM

Question: `CCCn1nc(C(=O)N2CCC[C@H]2C#N)c2c1N(CC)C(=O)[C@@H](NC(=O)c1cccc(C(F)(F)F)c1)[C@H]2C1CC1` [Compound I-467] was tested. Which IC50 [1, 3] did it give?
Answer: ≤ 200 nM

Question: What about the IC50 [1, 4] of the same compound?
Answer: 1000 to 3000 nM

Question: And the IC50 ([2]; TF-1, 3 h)?
Answer: 100 to 1000 nM

Question: What does the source list for `CCN1C(=O)[C@@H](NC(=O)c2cccc(C(F)(F)F)c2)[C@@H](C2CCCC2)c2c(C(=O)N3CCC[C@H]3C#N)nn(C3CCOCC3)c21` [Compound I-469]?
Answer: IC50 [1, 3]: ≤ 200 nM; IC50 [1, 4]: 1000 to 3000 nM; IC50 ([2]; TF-1, 3 h): ≤ 100 nM

Question: Which results are given for `CCN1C(=O)[C@@H](NC(=O)c2cccc(C(F)(F)F)c2)[C@@H](c2ccc(F)cc2)c2c(C(=O)N(C)[C@H](C#N)CCN(C)C3COC3)nn(C3CCOCC3)c21` [Compound I-470]?
Answer: IC50 [1, 3]: ≤ 200 nM; IC50 [1, 5]: ≤ 200 nM; IC50 ([2]; TF-1, 3 h): ≤ 100 nM

Question: Which IC50 [1, 3] does the source give for `COCCN1C(=O)[C@@H](NC(=O)c2cccc(C(F)(F)F)c2)[C@@H](C2CC2)c2c(C(=O)N3[C@H](C#N)C[C@H]4C[C@H]43)nn(C3CCOCC3)c21` [Compound I-474] here?
Answer: 200 to 1000 nM

Question: What about the IC50 [1, 4] of the same compound?
Answer: 1000 to 3000 nM

Question: What about the IC50 ([2]; TF-1, 3 h) of the same compound?
Answer: 100 to 1000 nM

Question: With `CCN1C(=O)[C@@H](NC(=O)CCc2ccccc2)[C@@H](C2CC2)c2c(C(=O)N3[C@H](C#N)C[C@H]4C[C@H]43)nn(C3CCOCC3)c21` [Compound I-476] as the compound, how does the IC50 [1, 3] read?
Answer: 1000 to 3000 nM

Question: And the IC50 [1, 4]?
Answer: 1000 to 3000 nM

Question: What about the IC50 ([2]; TF-1, 3 h) of the same compound?
Answer: > 1000 nM

Question: Which IC50 [1, 3] does the source give for `CCN1C(=O)[C@@H](NC(=O)c2cccc(C(F)(F)F)c2)[C@@H](C2CCCC2)c2c(C(=O)N(CC#N)C3CC3)nn(C3CCOCC3)c21` [Compound I-478] here?
Answer: ≤ 200 nM

Question: What about the IC50 [1, 4] of the same compound?
Answer: 1000 to 3000 nM

Question: And the IC50 ([2]; TF-1, 3 h)?
Answer: 100 to 1000 nM

Question: How did the IC50 [1, 3] turn out when `CCCn1nc(C(=O)N2CCC[C@H]2C#N)c2c1N(CC)C(=O)[C@H](NC(=O)c1cccc(C(F)(F)F)c1)[C@@H]2c1ccc(F)cc1` [Compound I-479] was run?
Answer: 1000 to 3000 nM

Question: And the IC50 [1, 4]?
Answer: 1000 to 3000 nM

Question: And the IC50 ([2]; TF-1, 3 h)?
Answer: > 1000 nM

Question: What does the source list for `CCN1C(=O)[C@H](NC(=O)c2cccc(C(F)(F)F)c2)[C@H](c2ccc(F)cc2)c2c(C(=O)N3CCC[C@H]3C#N)nn(-c3cccc(OCCCN(C)C4COC4)c3)c21` [Compound I-480, N-((4R,5R)-3-((S)-2-cyanopyrrolidine-1-carbonyl)-7-ethyl-4-(4-fluorophenyl)-1-(3-(3-(methyl(oxetan-3-yl)amino)propoxy)phenyl)-6-oxo-4,5,6,7-tetrahydro-1H-pyrazolo[3,4-b]pyridin-5-yl)-3-(trifluoromethyl)benzamide]?
Answer: IC50 [1, 3]: 1000 to 3000 nM; IC50 [1, 4]: 1000 to 3000 nM; IC50 ([2]; TF-1, 3 h): > 1000 nM

Question: What does the source list for `CCN1C(=O)[C@@H](NC(=O)c2csc(C)c2)[C@@H](C2CC2)c2c(C(=O)N3[C@H](C#N)C[C@H]4C[C@H]43)nn(C3CCOCC3)c21` [Compound I-481]?
Answer: IC50 [1, 3]: ≤ 200 nM; IC50 [1, 5]: ≤ 200 nM; IC50 [2]: ≤ 100 nM

Question: What does the source list for `CCN1C(=O)[C@@H](NC(=O)c2ccc3scnc3c2)[C@@H](C2CC2)c2c(C(=O)N3[C@H](C#N)C[C@H]4C[C@H]43)nn(C3CCOCC3)c21` [Compound I-483]?
Answer: IC50 [1, 3]: 200 to 1000 nM; IC50 [1, 4]: 1000 to 3000 nM; IC50 ([2]; TF-1, 3 h): > 1000 nM

Source: patent US20250163057A1, “DCN-1 MODULATING COMPOUNDS AND METHODS OF USE THEREOF” (Cellarity, Inc., priority 2023, published 2025)
